Conditions: for surface tension liquid-gas: Ring tensiometer; for viscosity / mass density: 101.33 kPa, Liquid; for viscosity: Capillary tube (Ostwald / Ubbelohde) method; for mass density: Pycnometric method

CC[n+]1ccccc1.O=S(=O)([N-]S(=O)(=O)C(F)(F)F)C(F)(F)F [1-ethylpyridinium bis[(trifluoromethyl)sulfonyl]imide]
Conditions | mass density [kg/m3] | surface tension liquid-gas [mN/m] | viscosity [mPa·s]
293.15 K | 1534 | 35.6 | 47.43
298.15 K | 1532 | 35.5 | 39.76
303.15 K | 1530 | 35.4 | 33.31
308.15 K | 1528 | 35.3 | 27.8
313.15 K | 1520 | 35.2 | 23.39
318.15 K | 1519 | 35.2 | 20.2
323.15 K | 1515 | 35.1 | 17.61

CCCC[n+]1cccc(C)c1.O=S(=O)([N-]S(=O)(=O)C(F)(F)F)C(F)(F)F
Conditions | mass density [kg/m3] | surface tension liquid-gas [mN/m] | viscosity [mPa·s]
293.15 K | 1429 | 35.8 | 81.71
298.15 K | 1425 | 35.5 | 64.73
303.15 K | 1423 | 35.3 | 51.42
308.15 K | 1421 | 35.1 | 41.73
313.15 K | 1420 | 34.8 | 33.98
318.15 K | 1419 | 34.6 | 29.05
323.15 K | 1416 | 34.4 | 25.68

CCCCCC[n+]1ccccc1.O=S(=O)([N-]S(=O)(=O)C(F)(F)F)C(F)(F)F [1-hexylpyridinium bis(trifluromethylsulfonyl)imide]
Conditions | mass density [kg/m3] | surface tension liquid-gas [mN/m] | viscosity [mPa·s]
293.15 K | 1386 | 34.2 | 275.12
298.15 K | 1382 | 33.9 | 245.33
303.15 K | 1379 | 33.5 | 201.82
308.15 K | 1373 | 33.3 | 153.24
313.15 K | 1368 | 33 | 131.32
318.15 K | 1368 | 32.8 | 105.99
323.15 K | 1362 | 32.6 | 83.66

CCCC[n+]1ccccc1C.O=S(=O)([N-]S(=O)(=O)C(F)(F)F)C(F)(F)F
Conditions | mass density [kg/m3] | surface tension liquid-gas [mN/m] | viscosity [mPa·s]
293.15 K | 1482 | 36.5 | 143.91
298.15 K | 1476 | 36.3 | 95.73
303.15 K | 1459 | 36.1 | 72.05
308.15 K | 1450 | 35.9 | 56.95
313.15 K | 1446 | 35.5 | 45.83
318.15 K | 1440 | 35.2 | 37.39
323.15 K | 1435 | 35 | 29.48

CCCC[n+]1ccccc1.O=S(=O)([N-]S(=O)(=O)C(F)(F)F)C(F)(F)F [1-butylpyridinium bis[(trifluoromethyl)sulfonyl]imide]
Conditions | mass density [kg/m3] | surface tension liquid-gas [mN/m] | viscosity [mPa·s]
293.15 K | 1462 | 35 | 75.61
298.15 K | 1456 | 34.8 | 60.55
303.15 K | 1445 | 34.5 | 48.11
308.15 K | 1441 | 34.4 | 38.08
313.15 K | 1439 | 34.3 | 32.37
318.15 K | 1437 | 34.2 | 27.62
323.15 K | 1433 | 34.1 | 22.75

CCCC[n+]1ccc(C)cc1.O=S(=O)([N-]S(=O)(=O)C(F)(F)F)C(F)(F)F
Conditions | mass density [kg/m3] | surface tension liquid-gas [mN/m] | viscosity [mPa·s]
293.15 K | 1419 | 35.4 | 65.26
298.15 K | 1413 | 35 | 54.41
303.15 K | 1412 | 34.7 | 44.42
308.15 K | 1411 | 34.5 | 36.12
313.15 K | 1410 | 34.2 | 29.81
318.15 K | 1409 | 34 | 25.18
323.15 K | 1405 | 33.8 | 20.23

CCCC[n+]1cccc(C)c1.F[B-](F)(F)F [1-butyl-3-methylpyridinium tetrafluoroborate]
Conditions | mass density [kg/m3] | surface tension liquid-gas [mN/m] | viscosity [mPa·s]
293.15 K | 1189 | 47.5 | 226.15
298.15 K | 1177 | 47.1 | 169.51
303.15 K | 1172 | 45.8 | 129.06
308.15 K | 1168 | 45.6 | 97.03
313.15 K | 1166 | 45.3 | 73.35
318.15 K | 1163 | 44.9 | 59.05
323.15 K | 1160 | 44.4 | 46.59

CCCC[n+]1cccc(C)c1.O=S(=O)([O-])C(F)(F)F [1-butyl-3-methylpyridinium trifluoromethanesulfonate]
Conditions | mass density [kg/m3] | surface tension liquid-gas [mN/m] | viscosity [mPa·s]
293.15 K | 1306 | 38.6 | 142.15
298.15 K | 1297 | 38.2 | 126.57
303.15 K | 1291 | 37.5 | 101.27
308.15 K | 1285 | 37.1 | 78.04
313.15 K | 1275 | 36.9 | 60.98
318.15 K | 1270 | 36.6 | 48.9
323.15 K | 1251 | 36.2 | 37.94

— the NIST ThermoML archive (doi:10.1016/j.jct.2012.06.018)
